The record followed here is patent publication EP1211260A1, “Peptides from Ag85 of mycobacterium and uses thereof” (priority 2000, dated 2002).

pIC50: −log10 of the molar value. Read-outs that look alike come from different tables or passages of the source. Where a SMILES comes first, the peptide text is derived from it.

This experiment has as its target Recombinant HLA-A*201 (Homo sapiens, UniProt P04439, D140Y/D185E/D98H/E176V/E277Q/G131W/G231S/I119V/I121R/I166T/I218V/L300P/L318F/N151K/N90K/P208A/P217A/Q86G/Q94H/R138H/R169H/T345S). Description: biochemical. The experiment is classed as binding. The settings on record: for IC50: 20°C, 48 h, standard peptide HBV core 47-56 (52->C), read-out: HLA-A2 Binding Affinity(IC50; µM).

Usually IC50 stands for the concentration needed to halve the response being measured. With `CC(C)C[C@H](NC(=O)[C@H](Cc1ccc(O)cc1)NC(=O)[C@H](CCC(=O)O)NC(=O)[C@@H](NC(=O)[C@@H]1CCCN1C(=O)[C@H](CC(C)C)NC(=O)CN)C(C)C)C(=O)N[C@@H](CCC(N)=O)C(=O)N[C@H](C(=O)O)C(C)C` [5-13] (H-GLPVEYLQV-OH), the IC50 is 7 µM.
Same read-out and setting: under `CC(C)C[C@H](NC(=O)CNC(=O)[C@H](CC(=O)O)NC(=O)[C@H](CC(C)C)NC(=O)[C@H](CC(C)C)NC(=O)[C@@H](N)Cc1ccc(O)cc1)C(=O)N[C@@H](CCCNC(=N)N)C(=O)N[C@@H](C)C(=O)O` [37-44] (H-YLLDGLRA-OH) stands 1.6 µM; under `CC[C@H](C)[C@H](NC(=O)[C@H](CO)NC(=O)[C@H](CC(C)C)NC(=O)CN)C(=O)N[C@H](C(=O)N[C@@H](CCSC)C(=O)N1CCC[C@H]1C(=O)N[C@H](C(=O)O)C(C)C)C(C)C` [65-72] (H-GLSIVMPV-OH), 0.3 µM; under `CC(C)C[C@H](NC(=O)[C@H](Cc1c[nH]c2ccccc12)NC(=O)[C@H](CCC(N)=O)NC(=O)[C@@H]1CCCN1C(=O)[C@H](CC(C)C)NC(=O)[C@H](CCC(=O)O)NC(=O)[C@H](CO)NC(=O)[C@@H](NC(=O)[C@H](CC(C)C)NC(=O)[C@@H](N)Cc1ccccc1)[C@@H](C)O)C(=O)O` [100-109] (H-FLTSELPQWL-OH), 0.7 µM.
On the same count and under the same terms, under `CC(C)C[C@H](NC(=O)[C@H](Cc1c[nH]c2ccccc12)NC(=O)[C@H](CCC(N)=O)NC(=O)[C@@H]1CCCN1C(=O)[C@H](CC(C)C)NC(=O)[C@H](CCC(=O)O)NC(=O)[C@H](CO)NC(=O)[C@@H](NC(=O)[C@@H](N)CC(C)C)[C@@H](C)O)C(=O)O` [101-109] (H-LTSELPQWL-OH) stands 6 µM.
Broadly, the pIC50 is −log10 of the IC50, conventionally taken in molar units. Regarding `CC[C@H](C)[C@H](NC(=O)[C@H](CCSC)NC(=O)[C@H](C)NC(=O)[C@H](CO)NC(=O)[C@H](CO)NC(=O)CNC(=O)[C@H](C)NC(=O)[C@H](CCSC)NC(=O)[C@@H](N)CO)C(=O)O` [126-134] (H-SMAGSSAMI-OH), the pIC50 is 5.77.
For `CC[C@H](C)[C@H](NC(=O)[C@H](CCSC)NC(=O)[C@H](C)NC(=O)[C@H](CO)NC(=O)[C@H](CO)NC(=O)CNC(=O)[C@H](C)NC(=O)[C@H](CCSC)NC(=O)[C@@H](N)CO)C(=O)N[C@@H](CC(C)C)C(=O)O` [126-135] (H-SMAGSSAMIL-OH), the IC50 stood at 0.5 µM.
Turning to `CC[C@H](C)[C@H](NC(=O)[C@@H](N)Cc1ccccc1)C(=O)N[C@@H](Cc1ccc(O)cc1)C(=O)N[C@@H](C)C(=O)NCC(=O)N[C@@H](CO)C(=O)N[C@@H](CC(C)C)C(=O)N[C@@H](CO)C(=O)N[C@@H](C)C(=O)O` [143-151] (H-FIYAGSLSA-OH), the IC50 turned out to be 0.4 µM.
On the same count and under the same terms, the result for `CC[C@H](C)[C@H](NC(=O)[C@@H](N)Cc1ccccc1)C(=O)N[C@@H](Cc1ccc(O)cc1)C(=O)N[C@@H](C)C(=O)NCC(=O)N[C@@H](CO)C(=O)N[C@@H](CC(C)C)C(=O)N[C@@H](CO)C(=O)N[C@@H](C)C(=O)N[C@@H](CC(C)C)C(=O)O` [143-152, FIYAGSLSAL] (H-FIYAGSLSAL-OH) reads 0.01 µM; that for `CC[C@H](C)[C@H](NC(=O)[C@H](CC(C)C)NC(=O)[C@H](CO)NC(=O)[C@@H]1CCCN1C(=O)CNC(=O)[C@H](CCSC)NC(=O)CN)C(=O)NCC(=O)N[C@@H](CC(C)C)C(=O)O` [158-166] (H-GMGPSLIGL-OH), 1.4 µM.
For the compound `CC(C)C[C@H](NC(=O)[C@H](CCCNC(=N)N)NC(=O)[C@@H](NC(=O)[C@H](CC(N)=O)NC(=O)[C@H](CC(N)=O)NC(=O)[C@H](C)NC(=O)[C@@H](NC(=O)[C@H](CC(C)C)NC(=O)[C@@H](N)CCCCN)C(C)C)[C@@H](C)O)C(=O)O` [199-207] (H-KLVANNTRL-OH), the pIC50 is 5.85.
Regarding `CC(C)C[C@H](NC(=O)[C@H](CCCNC(=N)N)NC(=O)[C@@H](NC(=O)[C@H](CC(N)=O)NC(=O)[C@H](CC(N)=O)NC(=O)[C@H](C)NC(=O)[C@@H](NC(=O)[C@H](CC(C)C)NC(=O)[C@@H](N)CCCCN)C(C)C)[C@@H](C)O)C(=O)N[C@@H](Cc1c[nH]c2ccccc12)C(=O)N[C@H](C(=O)O)C(C)C` [199-209] (H-KLVANNTRLWV-OH), the IC50 was 0.6 µM.
With `CC(C)C[C@H](NC(=O)[C@@H](N)CCCNC(=N)N)C(=O)N[C@@H](Cc1c[nH]c2ccccc12)C(=O)N[C@H](C(=O)N[C@@H](Cc1ccc(O)cc1)C(=O)N[C@@H](CS)C(=O)NCC(=O)N[C@@H](CC(N)=O)C(=O)NCC(=O)N[C@H](C(=O)O)[C@@H](C)O)C(C)C` [206-215] (H-RLWVYCGNGT-OH), the IC50 was 2 µM.
Same read-out and setting: the result for `CC(C)C[C@H](NC(=O)[C@H](CC(N)=O)NC(=O)[C@H](CO)NC(=O)[C@H](CO)NC(=O)[C@H](CCCNC(=N)N)NC(=O)[C@@H](NC(=O)[C@H](Cc1ccccc1)NC(=O)[C@H](CC(N)=O)NC(=O)[C@H](CCC(=O)O)NC(=O)[C@H](CC(C)C)NC(=O)[C@@H](N)Cc1ccccc1)C(C)C)C(=O)O` [228-238] (H-FLENFVRSSNL-OH) reads 1.2 µM.
